Measurements: US20080153886A1, “Use Of Heterocyclic Compounds As Neurogenic Agents” (NEUROPHARMA, S.A., priority 2005, published 2008)

Test system: Neurospheres of the cerebral cortex and hippocampus of 2-day-old postnatal rats
Experiment: Neurosphere differentiation test (immunofluorescence with anti-GFAP / anti-MAP2 antibodies)
Type: cell-based, rat
Settings: neurospheres grown 7 days in suspension with compound, 24 h on polylysine slides; versus basal (no compound); confocal images
Method: Neurospheres of the cerebral cortex and hippocampus of 2-day-old postnatal rats were grown in suspension culture for 7 days in the presence or absence of a formula (I) compound according to the invention, after which they were transferred to slides covered with polylysine and 24 h later (once adhered) immunofluorescence analyses were performed with anti-GFAP antibodies to view the astrocyte differentiation, or with anti-MAP2 to view neuronal differentiation. The images were captured on a TCS SP2 confocal microscope (Leica Microsystems).

Row | Structure (SMILES) | astrocyte differentiation of cells present in isolated neurospheres (anti-GFAP immunofluorescence) | neuronal differentiation of cells present in isolated neurospheres (anti-MAP2 immunofluorescence)
1 | O=c1sn(Cc2ccccc2)c(=O)n1Cc1ccccc1 [compound [1], 2,4-dibenzyl-[1,2,4]thiadiazolidine-3,5-dione] | induces | induces
2 | O=c1sn(-c2cccc3ccccc23)c(=O)n1Cc1ccccc1 [compound [2], 4-benzyl-2-naphthalene-1-yl-[1,2,4]thiadiazolidine-3,5-dione] | induces | induces
3 | O=c1sn(C(c2ccccc2)c2ccccc2)c(=O)n1Cc1ccccc1 [compound [3], 2-Benzhydryl-4-benzyl-[1,2,4]thiadiazolidine-3,5-dione] | induces | induces
4 | O=c1sn(-c2ccc(Oc3ccccc3)cc2)c(=O)n1Cc1ccccc1 [compound [4], 4-benzyl-2-(4-phenoxy-phenyl)-[1,2,4]thiadiazolidine-3,5-dione] | induces | induces
